Data taken from patent US9290451B2 (Hoffmann-La Roche Inc., priority 2011, dated 2016).

Legend:
human CB1 receptors = human CB1 receptors (Homo sapiens (Human), UniProt P21554); assay: cAMP assay, CHO cells expressing human CB1 receptors; type: cell-based; settings: CHO cells expressing human CB1, cAMP; read-out: human CB1 EC50
Method: (§1) CHO cells expressing human CB1 or CB2 receptors are seeded 17-24 hours prior to the experiment 50.000 cells per well in a black 96 well plate with flat clear bottom (Corning Costar #3904) in DMEM (Invitrogen No. 31331), 1×HT supplement, with 10% fetal calf serum and incubated at 5% CO2 and 37° C. in a humidified incubator. The growth medium was exchanged with Krebs Ringer Bicarbonate buffer with 1 mM IBMX and incubated at 30° C. for 30 min Compounds were added to a final assay volume of 100 μl and incubated for 30 min at 30° C. Using the cAMP-Nano-TRF detection kit the assay (Roche Diagnostics) was stopped by the addition of 50 μl lysis reagent (Tris, NaCl, 1.5% Triton X100, 2.5% NP40, 10% NaN3) and 50 μl detection solutions (20 μM mAb Alexa700-cAMP 1:1, and 48 μM Ruthenium-2-AHA-cAMP) and shaken for 2 h at room temperature. The time-resolved energy transfer is measured by a TRF reader (Evotec Technologies GmbH), equipped with a ND:YAG laser as excitation source. The plate is measured twice with the excitation at 355 nm and at the emission with a delay of 100 ns and a gate of 100 ns, total exposure time 10 s at 730 (bandwidth 30 nm) or 645 nm (bandwidth 75 nm), respectively. The FRET signal is calculated as follows: FRET=T730-Alexa730-P(T645-B645) with P═Ru730-B730/Ru645-B645, where T730 is the test well measured at […], T645 is the test well measured at 645 nm, B730 and B645 are the buffer controls at 730 nm and 645 nm, respectively. cAMP content is determined from the function of a standard curve spanning from 10 μM to 0.13 nM cAMP.
(§2) EC50 values were determined using Activity Base analysis (ID Business Solution, Limited). The EC50 values for a wide range of cannabinoid agonists generated from this assay for reference compounds were in agreement with the values published in the scientific literature.

human CB2 receptors = human CB2 receptors (Homo sapiens (Human), UniProt P34972); assay: cAMP assay, CHO cells expressing human CB2 receptors; type: cell-based; settings: CHO cells expressing human CB2, cAMP; read-out: human CB2 EC50
human CB2 receptors, sequence (P34972 whole entry): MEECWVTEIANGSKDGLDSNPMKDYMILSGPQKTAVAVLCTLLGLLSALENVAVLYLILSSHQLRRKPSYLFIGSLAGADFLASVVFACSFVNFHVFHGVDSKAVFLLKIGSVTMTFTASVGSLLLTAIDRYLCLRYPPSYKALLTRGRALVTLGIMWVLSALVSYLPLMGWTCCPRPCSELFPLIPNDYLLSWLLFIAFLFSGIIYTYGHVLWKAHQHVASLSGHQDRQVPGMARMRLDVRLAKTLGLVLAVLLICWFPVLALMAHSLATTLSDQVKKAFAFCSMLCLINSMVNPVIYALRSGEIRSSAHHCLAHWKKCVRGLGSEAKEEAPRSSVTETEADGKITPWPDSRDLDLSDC
Method: as §1, §2

human CB1 receptors, sequence (P21554 whole entry): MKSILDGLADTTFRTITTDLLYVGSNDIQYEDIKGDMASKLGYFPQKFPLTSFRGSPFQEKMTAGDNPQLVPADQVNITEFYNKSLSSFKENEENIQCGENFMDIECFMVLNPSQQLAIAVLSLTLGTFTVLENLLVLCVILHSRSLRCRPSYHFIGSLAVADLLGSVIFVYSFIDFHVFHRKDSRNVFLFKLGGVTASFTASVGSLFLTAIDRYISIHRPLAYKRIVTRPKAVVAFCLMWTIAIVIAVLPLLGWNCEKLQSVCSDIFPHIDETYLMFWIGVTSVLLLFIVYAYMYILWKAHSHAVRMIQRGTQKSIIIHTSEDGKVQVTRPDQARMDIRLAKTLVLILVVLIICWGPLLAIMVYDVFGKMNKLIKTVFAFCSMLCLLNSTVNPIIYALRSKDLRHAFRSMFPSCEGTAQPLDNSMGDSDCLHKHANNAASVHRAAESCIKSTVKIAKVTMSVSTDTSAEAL

Row | Structure (SMILES) | EC50 (human CB1 receptors) [nM] | EC50 (human CB2 receptors) [nM]
1 | CC(C)C[C@H](NC(=O)c1ccc(N2CCCC2C)c(OCC2CC2)n1)C(N)=O (stereo partly drawn) [Example 32, 6-Cyclopropylmethoxy-5-(2-methyl-pyrrolidin-1-yl)-pyridine-2-carboxylic acid ((S)-1-carbamoyl-3-methyl-butyl)-amide] | 1390 | 1.55
2 | Cc1nc(C(C)(C)NC(=O)c2ccc(N3CCCC3)c(OCC3CC3)n2)no1 [Example 33, 6-Cyclopropylmethoxy-5-pyrrolidin-1-yl-pyridine-2-carboxylic acid [1-methyl-1-(5-methyl-[1,2,4]oxadiazol-3-yl)-ethyl]-amide] | > 10000 | 23.1
3 | CC(C)(NC(=O)c1ccc(C2CCOCC2)c(OCC2CC2)n1)c1nccs1 [Example 34, 6-Cyclopropylmethoxy-5-(tetrahydro-pyran-4-yl)-pyridine-2-carboxylic acid (1-methyl-1-thiazol-2-yl-ethyl)-amide] | > 10000 | 53.7
4 | CC(C)(CCN1CCOCC1)NC(=O)c1ccc(N2CCCC2)c(OCC2CC2)n1 [Example 35, 6-Cyclopropylmethoxy-5-pyrrolidin-1-yl-pyridine-2-carboxylic acid (1,1-dimethyl-3-morpholin-4-yl-propyl)-amide] | > 10000 | 7.1
5 | CNC(=O)C(C)(C)NC(=O)c1ccc(C)c(OCC2CC2)n1 [Example 36, 6-Cyclopropylmethoxy-5-methyl-pyridine-2-carboxylic acid (1-methyl-1-methylcarbamoyl-ethyl)-amide] | > 10000 | 974
6 | O=C(NN1CCCCC1)c1cccc(C2CCOCC2)n1 [Example 37, 6-(Tetrahydro-pyran-4-yl)-pyridine-2-carboxylic acid piperidin-1-ylamide] | > 10000 | 625
7 | Cc1nc([C@H](CC2CC2)NC(=O)c2cccc(-c3cccc(Cl)c3)n2)no1 [Example 38] | > 10000 | 99.7
8 | CNC(=O)C(C)(C)NC(=O)c1ccc(C2CCCC2)c(OCC2CC2)n1 [Example 40, 5-Cyclopentyl-6-cyclopropylmethoxy-pyridine-2-carboxylic acid (1-methyl-1-methylcarbamoyl-ethyl)-amide] | > 10000 | 30.8
9 | Cc1nc(C(C)(C)NC(=O)c2cccc(-c3cccc(Cl)c3)n2)no1 [Example 41, 6-(3-Chloro-phenyl)-pyridine-2-carboxylic acid [1-methyl-1-(5-methyl-[1,2,4]oxadiazol-3-yl)-ethyl]-amide] | > 10000 | 99.9
10 | O=C(NN1CCCCC1)c1ccc(C2CC2)c(OCC2CC2)n1 [Example 42, 5-Cyclopropyl-6-cyclopropylmethoxy-pyridine-2-carboxylic acid piperidin-1-ylamide] | > 10000 | 1480
11 | CNC(=O)C(C)(C)NC(=O)c1ccc(C2CC2)c(OCC2CC2)n1 [Example 43, 5-Cyclopropyl-6-cyclopropylmethoxy-pyridine-2-carboxylic acid (1-methyl-1-methylcarbamoyl-ethyl)-amide] | > 10000 | 275
12 | CC(C)(NC(=O)c1ccc(C2CC2)c(OCC2CC2)n1)c1nccs1 [Example 44, 5-Cyclopropyl-6-cyclopropylmethoxy-pyridine-2-carboxylic acid (1-methyl-1-thiazol-2-yl-ethyl)-amide] | 1610 | 13.5
13 | Cc1nc(C(C)(C)NC(=O)c2ccc(C3CC3)c(OCC3CC3)n2)no1 [Example 45, 5-Cyclopropyl-6-cyclopropylmethoxy-pyridine-2-carboxylic acid [1-methyl-1-(5-methyl-[1,2,4]oxadiazol-3-yl)-ethyl]-amide] | 1060 | 87.1
14 | O=C(NN1CCCCC1)c1cccc(-c2ccc(Cl)cc2)n1 [Example 46, 6-(4-Chloro-phenyl)-pyridine-2-carboxylic acid piperidin-1-ylamide] | > 10000 | 290
15 | Cc1ccc(C(=O)NN2CCCCC2)nc1OCC1CC1 [Example 47, 6-Cyclopropylmethoxy-5-methyl-pyridine-2-carboxylic acid piperidin-1-ylamide] | > 10000 | 138
16 | Cc1ccc(C(=O)NC(C)(C)c2ncco2)nc1-c1cccc(Cl)c1 [Example 49, 6-(3-Chloro-phenyl)-5-methyl-pyridine-2-carboxylic acid (1-methyl-1-oxazol-2-yl-ethyl)-amide] | > 10000 | 308
17 | Cc1ccc(C(=O)NC(C)(C)c2nccs2)nc1-c1cccc(Cl)c1 [Example 50, 6-(3-Chloro-phenyl)-5-methyl-pyridine-2-carboxylic acid (1-methyl-1-thiazol-2-yl-ethyl)-amide] | 1490 | 133
18 | Cc1nc(C(C)(C)NC(=O)c2ccc(C)c(-c3cccc(Cl)c3)n2)no1 [Example 51, 6-(3-Chloro-phenyl)-5-methyl-pyridine-2-carboxylic acid [1-methyl-1-(5-methyl-[1,2,4]oxadiazol-3-yl)-ethyl]-amide] | > 10000 | 127
19 | Cc1ccc(C(=O)NN2CCCCC2)nc1-c1cccc(Cl)c1 [Example 52, 6-(3-Chloro-phenyl)-5-methyl-pyridine-2-carboxylic acid piperidin-1-yl-amide] | > 10000 | 322
20 | Cc1nc([C@H](CC2CC2)NC(=O)c2ccc(C3CCCC3)c(OCC3CC3)n2)no1 [Example 53, 5-Cyclopentyl-6-cyclopropylmethoxy-pyridine-2-carboxylic acid [(S)-2-cyclopropyl-1-(5-methyl-[1,2,4]oxadiazol-3-yl)-ethyl]-amide] | > 10000 | 45.7
21 | Cc1nc(C(C)(C)NC(=O)c2ccc(C3CCCC3)c(OCC3CC3)n2)no1 [Example 54, 5-Cyclopentyl-6-cyclopropylmethoxy-pyridine-2-carboxylic acid [1-methyl-1-(5-methyl-[1,2,4]oxadiazol-3-yl)-ethyl]-amide] | 2160 | 11.4
22 | CC(C)(NC(=O)c1ccc(C2CCCC2)c(OCC2CC2)n1)c1nccs1 [Example 55, 5-Cyclopentyl-6-cyclopropylmethoxy-pyridine-2-carboxylic acid (1-methyl-1-thiazol-2-yl-ethyl)-amide] | 1390 | 31.7
23 | CC(C)C[C@H](NC(=O)c1cccc(-c2cccc(Cl)c2)n1)c1nccs1 [Example 56, 6-(3-Chloro-phenyl)-pyridine-2-carboxylic acid ((S)-3-methyl-1-thiazol-2-yl-butyl)-amide] | > 10000 | 173
24 | Cc1nc([C@H](CC2CC2)NC(=O)c2ccc(C)c(OCC3CC3)n2)no1 [Example 57, 6-Cyclopropylmethoxy-5-methyl-pyridine-2-carboxylic acid [(S)-2-cyclopropyl-1-(5-methyl-[1,2,4]oxadiazol-3-yl)-ethyl]-amide] | > 10000 | 319
25 | CC(C)(NC(=O)c1ccc(Cl)c(-c2cccc(Cl)c2)n1)c1nccs1 [Example 58, 5-Chloro-6-(3-chloro-phenyl)-pyridine-2-carboxylic acid (1-methyl-1-thiazol-2-yl-ethyl)-amide] | 1110 | 104
26 | O=C(N[C@@H](CC1CC1)c1nccs1)c1ccc(C2CCOCC2)c(OCC2CC2)n1 [Example 59, 6-Cyclopropylmethoxy-5-(tetrahydro-pyran-4-yl)-pyridine-2-carboxylic acid ((S)-2-cyclopropyl-1-thiazol-2-yl-ethyl)-amide] | > 10000 | 32.5
27 | O=C(N[C@@H](CC1CC1)c1nccs1)c1cccc(-c2cccc(Cl)c2)n1 [Example 60, 6-(3-Chloro-phenyl)-pyridine-2-carboxylic acid ((S)-2-cyclopropyl-1-thiazol-2-yl-ethyl)-amide] | > 10000 | 62.2
28 | CC(C)(NC(=O)c1ccc(N2CCCC2=O)c(OCC2CC2)n1)c1ncco1 [Example 61, 6-Cyclopropylmethoxy-5-(2-oxo-pyrrolidin-1-yl)-pyridine-2-carboxylic acid (1-methyl-1-oxazol-2-yl-ethyl)-amide] | > 10000 | 1480
29 | Cc1ccc(C(=O)NC(C)(C)c2nccs2)nc1OCC1CC1 [Example 62, 6-Cyclopropylmethoxy-5-methyl-pyridine-2-carboxylic acid (1-methyl-1-thiazol-2-yl-ethyl)-amide] | 561 | 11.5
30 | CC(C)(NC(=O)c1ccc(N2CCCC2)c(OCC2CC2)n1)C1=NCCO1 [Example 63, 6-Cyclopropylmethoxy-5-pyrrolidin-1-yl-pyridine-2-carboxylic acid [1-(4,5-dihydro-oxazol-2-yl)-1-methyl-ethyl]-amide] | > 10000 | 112
